“And” between values parts separate entries of the source, which are not always exact repeats. Equal entries are not always repeated. Where two headings read alike, the source gives them in different places.
Experiment: Pharmacokinetics in CD-1 mice (plasma concentrations, PK parameters)
Assay type: in vivo
Description: Pharmacokinetics for I-127, I-172 and I-210 were determined in Sprague Dawley rats or CD-1 mice by dosing intravenous (IV), subcutaneous (SC) or per oral (PO) using facility SOPs and sampling plasma at required time points. Species, formulation, route of administration and time points samples are listed below for each compound.
Compounds were extracted from plasma, injected on reverse phase HPLC, eluted with a gradient from 5% to 95% acetonitrile in water and quantified by mass spectrometry with internal standard. Data are expressed in ng compound per mL of plasma.

[1] = mouse (CD1) iv 2 mg/kg, individual Mouse 1-3, 2 mg/kg
[2] = mouse (CD1) po 30 mg/kg, individual Mouse 4-6, 30 mg/kg
[3] = mouse (CD1) sc 30 mg/kg, individual Mouse 7-9, 30 mg/kg

O=C1CCC(N2C(=O)c3cccc(NCCOCCOCCNCc4ccc(-n5cc(NC(=O)c6coc(-c7ccnc(NCC8CC8)c7)n6)c(C(F)F)n5)cc4)c3C2=O)C(=O)N1 (stereo not shown) [I-210, 2-[2-(Cyclopropylmethylamino)-4-pyridyl]-N-[3-(difluoromethyl)-1-[4-[[2-[2-[2-[[2-(2,6-dioxo-3-piperidyl)-1,3-dioxoisoindolin-4-yl]amino]ethoxy]ethoxy]ethylamino]methyl]phenyl]pyrazol-4-yl]oxazole-4-carboxamide]
Tmax (CD-1, mouse, plasma, sc, 30 mg/kg, mouse (CD1) sc 30 mg/kg, Mean, read-out: Tmax): 2.33 h
half-life (CD-1, mouse, plasma, sc, 30 mg/kg, mouse (CD1) sc 30 mg/kg, individual Mouse 7-9): 4.34 h
AUC(0-inf) (CD-1, mouse, plasma, sc, 30 mg/kg, mouse (CD1) sc 30 mg/kg, individual Mouse 7-9, read-out: AUCInf): 1000 ng·h/mL
AUC(0-t) (CD-1, mouse, plasma, sc, 30 mg/kg, mouse (CD1) sc 30 mg/kg, individual Mouse 7-9, read-out: AUClast): 980 ng·h/mL
Cmax (CD-1, mouse, plasma, sc, 30 mg/kg, mouse (CD1) sc 30 mg/kg, individual Mouse 7-9, read-out: Cmax): 107 ng/mL
MRT inf (CD-1, mouse, plasma, sc, 30 mg/kg, mouse (CD1) sc 30 mg/kg, individual Mouse 7-9, read-out: MRTInf_obs): 6.06 h
Concentration (mouse (CD1) iv 2 mg/kg, 5 min, individual Mouse 1-3, 2 mg/kg): 495 ng/mL and 692 ng/mL
Concentration (mouse (CD1) iv 2 mg/kg, 0.25 h, individual Mouse 1-3, 2 mg/kg): 382 ng/mL and 424 ng/mL
Concentration (mouse (CD1) iv 2 mg/kg, 0.5 h, individual Mouse 1-3, 2 mg/kg): 238 ng/mL and 306 ng/mL
Concentration (mouse (CD1) iv 2 mg/kg, 1 h, individual Mouse 1-3, 2 mg/kg): 164 ng/mL and 195 ng/mL
Concentration (mouse (CD1) iv 2 mg/kg, 2 h, individual Mouse 1-3, 2 mg/kg): 92.5 ng/mL and 90.7 ng/mL
Concentration (mouse (CD1) iv 2 mg/kg, 4 h, individual Mouse 1-3, 2 mg/kg): 20.2 ng/mL and 25.6 ng/mL
Concentration (mouse (CD1) iv 2 mg/kg, 8 h, individual Mouse 1-3, 2 mg/kg): 4.92 ng/mL and 4.93 ng/mL
Concentration (mouse (CD1) iv 2 mg/kg, 24 h, individual Mouse 1-3): BLOQ
AUC_%Extrap_obs (mouse (CD1) iv 2 mg/kg, Mean): 1.66%
AUClast/D (mouse (CD1) iv 2 mg/kg, Mean): 331 h·ng/mL per mg/kg
Cl_obs (mouse (CD1) iv 2 mg/kg, Mean): 49.9 mL/min/kg
Vss_obs (mouse (CD1) iv 2 mg/kg, Mean): 4.48 L/kg
AUCInf [1]: 597 ng·h/mL and 706 ng·h/mL
AUC_%Extrap_obs [1]: 1.76% (2×) and 1.47%
AUClast [1]: 586 ng·h/mL and 695 ng·h/mL
AUClast/D [1]: 351 h·ng/mL per mg/kg and 293 h·ng/mL per mg/kg and 348 h·ng/mL per mg/kg
C0 [1]: 563 ng/mL and 884 ng/mL
Cl_obs [1]: 46.7 mL/min/kg and 55.8 mL/min/kg and 47.2 mL/min/kg
MRTInf_obs [1]: 1.41 h
T1/2 [1]: 1.48 h and 1.46 h
Vss_obs [1]: 4.42 L/kg and 5.04 L/kg and 4.00 L/kg
Concentration (mouse (CD1) po 30 mg/kg, 0.25 h, individual Mouse 4-6, 30 mg/kg): 55.9 ng/mL and 23.7 ng/mL and 12.8 ng/mL
Concentration (mouse (CD1) po 30 mg/kg, 0.5 h, individual Mouse 4-6, 30 mg/kg): 120 ng/mL and 23.0 ng/mL and 22.2 ng/mL
Concentration (mouse (CD1) po 30 mg/kg, 1 h, individual Mouse 4-6, 30 mg/kg): 153 ng/mL and 16.9 ng/mL and 45.1 ng/mL
Concentration (mouse (CD1) po 30 mg/kg, 2 h, individual Mouse 4-6, 30 mg/kg): 91.1 ng/mL and 112 ng/mL
Concentration (mouse (CD1) po 30 mg/kg, 4 h, individual Mouse 4-6, 30 mg/kg): 143 ng/mL and 123 ng/mL
Concentration (mouse (CD1) po 30 mg/kg, 8 h, individual Mouse 4-6, 30 mg/kg): 34.8 ng/mL and 17.1 ng/mL and 16.4 ng/mL
Concentration (mouse (CD1) po 30 mg/kg, 24 h, individual Mouse 4-6): BLOQ
AUC_%Extrap_obs (mouse (CD1) po 30 mg/kg, Mean): 9.8%
AUClast/D (mouse (CD1) po 30 mg/kg, Mean): 22.5 h·ng/mL per mg/kg
F (mouse (CD1) po 30 mg/kg, Mean): 7.47%
AUCInf [2]: 681 ng·h/mL and 662 ng·h/mL
AUC_%Extrap_obs [2]: 14.2% and 7.97% and 7.15%
AUClast [2]: 627 ng·h/mL and 615 ng·h/mL
AUClast/D [2]: 26.2 h·ng/mL per mg/kg and 20.9 h·ng/mL per mg/kg and 20.5 h·ng/mL per mg/kg
Cmax [2]: 143 ng/mL and 123 ng/mL
F [2]: 9.09% and 6.76% and 6.57%
MRTInf_obs [2]: 4.24 h and 3.97 h
T1/2 [2]: 2.20 h and 2.00 h
Concentration (mouse (CD1) sc 30 mg/kg, 0.25 h, individual Mouse 7-9, 30 mg/kg): 93.0 ng/mL and 70.1 ng/mL
Concentration (mouse (CD1) sc 30 mg/kg, 0.5 h, individual Mouse 7-9, 30 mg/kg): 101 ng/mL and 66.6 ng/mL
Concentration (mouse (CD1) sc 30 mg/kg, 1 h, individual Mouse 7-9, 30 mg/kg): 107 ng/mL and 76.5 ng/mL
Concentration (mouse (CD1) sc 30 mg/kg, 2 h, individual Mouse 7-9, 30 mg/kg): 115 ng/mL and 81.1 ng/mL
Concentration (mouse (CD1) sc 30 mg/kg, 4 h, individual Mouse 7-9, 30 mg/kg): 91.8 ng/mL and 105 ng/mL
Concentration (mouse (CD1) sc 30 mg/kg, 8 h, individual Mouse 7-9, 30 mg/kg): 49.0 ng/mL and 42.0 ng/mL
Concentration (mouse (CD1) sc 30 mg/kg, 24 h, individual Mouse 7-9, 30 mg/kg): 2.88 ng/mL and 2.05 ng/mL
AUC_%Extrap_obs (mouse (CD1) sc 30 mg/kg, Mean): 1.60%
AUClast/D (mouse (CD1) sc 30 mg/kg, Mean): 33.9 h·ng/mL per mg/kg
F (mouse (CD1) sc 30 mg/kg, Mean): 10.3%
AUCInf [3]: 1119 ng·h/mL and 983 ng·h/mL
AUC_%Extrap_obs [3]: 2.26% and 1.48% and 1.07%
AUClast [3]: 1102 ng·h/mL and 973 ng·h/mL
AUClast/D [3]: 32.7 h·ng/mL per mg/kg and 36.7 h·ng/mL per mg/kg and 32.4 h·ng/mL per mg/kg
Cmax [3]: 115 ng/mL and 105 ng/mL
F [3]: 9.94% and 11.1% and 9.75%
MRTInf_obs [3]: 5.82 h and 5.73 h
T1/2 [3]: 3.98 h and 3.56 h
Tmax [3]: 1 h
